“And” between values parts separate entries of the source, which are not always exact repeats. Identical values can stand only once.
Columns and labels:
[1] = target: T1, GABA-A receptor; anion channel (Bos taurus) (UniProt P10063+P08220+P20237+P08219+P10064+P22300); assay: Percent inhibition of [3H]Ro-151788 binding to bovine brain GABA-A central benzodiazepine receptor at 0.2 nM
Mus musculus [2] = assay: Muscle relaxant effect in mice at peroral dose of 0.3 mg/kg using rotarod test, value was expressed as no. of falls in 30 seconds; format: functional; details: route oral
Mus musculus [3] = assay: Antianxiety activity was tested in mice at peroral dose of 1 mg/kg using light/dark box test; format: functional; details: route oral
Mus musculus [4] = assay: Antianxiety activity was tested in mice at peroral dose of 0.3 mg/kg in light; format: functional; details: route oral
Mus musculus [5] = assay: Antianxiety activity was tested in mice at peroral dose of 0.3 mg/kg using light/dark box test; format: functional; details: route oral
Mus musculus [6] = assay: Antianxiety activity was tested in mice at peroral dose of 1 mg/kg in light; format: functional; details: route oral
Mus musculus [7] = assay: Muscle relaxant effect in mice at peroral dose of 1 mg/kg using rotarod test, value was expressed as no. of falls in 30 seconds; format: functional; details: route oral
Mus musculus [8] = assay: Muscle relaxant effect in mice at dose of 10 mg/kg using rotarod test, value was expressed as no. of falls in 30 seconds; format: functional
Mus musculus [9] = assay: Synergic sedative effect was tested in mice using the Hole Board test at peroral dose of 10 mg/kg, value was expressed in plane; format: functional; details: route oral
Mus musculus [10] = assay: Antianxiety activity was tested in mice at dose of 10 mg/kg using light/dark box test; format: functional
Mus musculus [11] = assay: Percent anticonvulsant activity against PTZ induced attack in mice at dose of 10 mg/kg; format: functional
Mus musculus [12] = assay: Antianxiety activity was tested in mice at dose of 10 mg/kg in light; format: functional
Mus musculus [13] = assay: Synergic sedative effect was tested in mice using the Hole Board test at peroral dose of 10 mg/kg, value was expressed in holes; format: functional; details: route oral
[14] = target: T2, GABA A receptor alpha-2/beta-2/gamma-2 (Rattus norvegicus, UniProt P18508+P23576+P63138); assay: Binding affinity for recombinant rat GABA-A receptor alpha-2-beta-2-gamma-2 subunits expressed in HEK293 cells; format: cell-based
T2 sequence (P18508 whole entry): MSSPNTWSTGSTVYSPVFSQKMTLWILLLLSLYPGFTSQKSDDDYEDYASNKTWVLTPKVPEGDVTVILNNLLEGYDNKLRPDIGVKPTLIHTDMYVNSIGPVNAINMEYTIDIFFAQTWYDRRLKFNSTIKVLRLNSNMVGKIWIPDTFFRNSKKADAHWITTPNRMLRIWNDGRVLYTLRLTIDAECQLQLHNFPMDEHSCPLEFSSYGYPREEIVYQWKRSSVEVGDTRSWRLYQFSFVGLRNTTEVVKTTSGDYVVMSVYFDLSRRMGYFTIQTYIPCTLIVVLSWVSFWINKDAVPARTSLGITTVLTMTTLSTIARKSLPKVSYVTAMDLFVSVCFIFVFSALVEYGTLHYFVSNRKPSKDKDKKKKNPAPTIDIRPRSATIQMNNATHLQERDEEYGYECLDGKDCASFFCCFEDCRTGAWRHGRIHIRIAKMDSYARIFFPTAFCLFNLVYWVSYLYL
T2 sequence (P23576 whole entry): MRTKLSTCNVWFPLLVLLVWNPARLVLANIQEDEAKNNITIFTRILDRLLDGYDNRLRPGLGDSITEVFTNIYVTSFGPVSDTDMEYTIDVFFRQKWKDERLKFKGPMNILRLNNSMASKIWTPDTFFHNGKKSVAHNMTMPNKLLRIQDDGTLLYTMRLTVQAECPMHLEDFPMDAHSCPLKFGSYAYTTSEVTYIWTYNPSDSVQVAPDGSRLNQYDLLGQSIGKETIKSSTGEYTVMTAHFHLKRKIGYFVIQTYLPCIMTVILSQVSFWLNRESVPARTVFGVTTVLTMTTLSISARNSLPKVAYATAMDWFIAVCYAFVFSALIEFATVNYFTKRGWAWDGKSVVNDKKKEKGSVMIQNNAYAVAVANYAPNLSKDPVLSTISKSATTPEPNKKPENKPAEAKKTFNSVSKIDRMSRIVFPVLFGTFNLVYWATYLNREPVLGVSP
T2 sequence (P63138 whole entry): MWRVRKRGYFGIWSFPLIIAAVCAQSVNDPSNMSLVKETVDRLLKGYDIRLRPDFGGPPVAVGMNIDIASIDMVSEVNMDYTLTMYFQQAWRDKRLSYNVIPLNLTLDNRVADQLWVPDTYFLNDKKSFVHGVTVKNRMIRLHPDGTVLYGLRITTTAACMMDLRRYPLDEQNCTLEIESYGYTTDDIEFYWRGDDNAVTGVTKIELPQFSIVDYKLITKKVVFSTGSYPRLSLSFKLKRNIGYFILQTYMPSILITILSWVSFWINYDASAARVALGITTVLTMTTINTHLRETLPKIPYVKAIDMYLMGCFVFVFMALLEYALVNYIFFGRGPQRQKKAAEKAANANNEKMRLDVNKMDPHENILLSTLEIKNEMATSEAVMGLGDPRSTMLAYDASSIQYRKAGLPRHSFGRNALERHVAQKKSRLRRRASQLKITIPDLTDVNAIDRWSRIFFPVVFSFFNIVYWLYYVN

[15] = target: T1, GABA-A receptor; anion channel (Bos taurus); assay: Relative binding to GABA-A receptor in the presence and absence of GABA (GABA shift), Ki(-GABA)/Ki(+GABA); format: protein-complex assay
[16] = target: GABA A receptor alpha-5/beta-3/gamma-2 (Rattus norvegicus, UniProt P18508+P19969+P63079); assay: Binding affinity for recombinant rat GABA-A receptor alpha-5-beta-3-gamma-2 subunits expressed in HEK 293 cells; format: cell-based, HEK293
Sequence of GABA A receptor alpha-5/beta-3/gamma-2 (P18508 whole entry): as the sequence (P18508 whole entry) above
Sequence of GABA A receptor alpha-5/beta-3/gamma-2 (P19969 whole entry): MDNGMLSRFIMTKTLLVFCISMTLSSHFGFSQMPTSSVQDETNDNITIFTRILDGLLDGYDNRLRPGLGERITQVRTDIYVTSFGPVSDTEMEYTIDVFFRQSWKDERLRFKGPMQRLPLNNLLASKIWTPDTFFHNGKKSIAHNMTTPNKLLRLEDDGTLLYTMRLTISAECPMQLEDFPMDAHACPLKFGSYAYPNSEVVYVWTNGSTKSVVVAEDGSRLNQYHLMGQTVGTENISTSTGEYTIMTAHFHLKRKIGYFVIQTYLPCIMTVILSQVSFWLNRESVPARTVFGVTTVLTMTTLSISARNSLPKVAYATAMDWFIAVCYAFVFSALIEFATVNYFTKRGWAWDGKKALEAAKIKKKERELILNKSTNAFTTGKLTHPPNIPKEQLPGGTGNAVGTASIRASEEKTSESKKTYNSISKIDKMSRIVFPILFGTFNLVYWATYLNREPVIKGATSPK
Sequence of GABA A receptor alpha-5/beta-3/gamma-2 (P63079 whole entry): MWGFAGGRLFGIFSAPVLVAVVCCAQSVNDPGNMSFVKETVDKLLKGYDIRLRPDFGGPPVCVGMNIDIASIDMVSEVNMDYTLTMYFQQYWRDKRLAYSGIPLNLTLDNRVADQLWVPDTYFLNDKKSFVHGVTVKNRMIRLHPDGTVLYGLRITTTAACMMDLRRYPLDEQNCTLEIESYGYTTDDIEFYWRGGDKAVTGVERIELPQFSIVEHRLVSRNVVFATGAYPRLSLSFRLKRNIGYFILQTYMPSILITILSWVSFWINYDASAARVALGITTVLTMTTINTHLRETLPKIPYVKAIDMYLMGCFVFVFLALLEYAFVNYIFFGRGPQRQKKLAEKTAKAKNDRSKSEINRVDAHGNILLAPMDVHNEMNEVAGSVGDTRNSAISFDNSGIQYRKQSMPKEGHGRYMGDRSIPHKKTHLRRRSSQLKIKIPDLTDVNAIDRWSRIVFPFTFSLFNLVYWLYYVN

[17] = target: GABA-A receptor; anion channel; assay: Inhibition of [3H]Ro-151788 binding to GABA-A central benzodiazepine receptor of bovine brain membranes; format: cell membranes, Bos taurus
[18] = target: GABA-A receptor; alpha-1/beta-2/gamma-2 (Rattus norvegicus, UniProt P18508+P62813+P63138); assay: Binding affinity for recombinant rat GABA-A receptor alpha-1-beta-2-gamma-2 subunits expressed in HEK293 cells; format: cell-based
Sequence of GABA-A receptor; alpha-1/beta-2/gamma-2 (P18508 whole entry): as the sequence (P18508 whole entry) above
Sequence of GABA-A receptor; alpha-1/beta-2/gamma-2 (P62813 whole entry): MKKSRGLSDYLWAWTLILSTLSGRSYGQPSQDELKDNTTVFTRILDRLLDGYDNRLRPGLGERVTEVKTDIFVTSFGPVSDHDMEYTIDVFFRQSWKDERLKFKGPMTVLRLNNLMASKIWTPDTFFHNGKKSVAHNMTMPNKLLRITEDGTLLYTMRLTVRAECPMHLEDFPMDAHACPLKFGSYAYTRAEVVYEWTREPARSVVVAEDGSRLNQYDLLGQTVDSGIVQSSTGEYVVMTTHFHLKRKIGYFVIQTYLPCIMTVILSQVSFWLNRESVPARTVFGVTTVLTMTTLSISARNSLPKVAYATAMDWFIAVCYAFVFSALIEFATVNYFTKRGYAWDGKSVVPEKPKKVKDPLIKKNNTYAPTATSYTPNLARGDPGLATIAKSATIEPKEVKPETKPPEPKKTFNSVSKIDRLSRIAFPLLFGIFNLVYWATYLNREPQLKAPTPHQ
Sequence of GABA-A receptor; alpha-1/beta-2/gamma-2 (P63138 whole entry): as the sequence (P63138 whole entry) above

Mus musculus [19] = assay: Antianxiety activity was tested in mice at dose of 30 mg/kg in light; format: functional
Mus musculus [20] = assay: Muscle relaxant effect in mice at dose of 30 mg/kg using rotarod test, value was expressed as no. of falls in 30 seconds; format: functional
Mus musculus [21] = assay: Antianxiety activity was tested in mice at dose of 30 mg/kg using light/dark box test; format: functional
Mus musculus [22] = assay: Percent anticonvulsant activity against PTZ induced attack in mice at dose of 30 mg/kg; format: functional
[23] = target: GABA A receptor alpha-3/beta-2/gamma-2 (Rattus norvegicus, UniProt P18508+P20236+P63138); assay: Binding affinity for recombinant rat GABA-A receptor alpha-3-beta-2-gamma-2 subunits expressed in HEK293 cells; format: cell-based
Sequence of GABA A receptor alpha-3/beta-2/gamma-2 (P18508 whole entry): as the sequence (P18508 whole entry) above
Sequence of GABA A receptor alpha-3/beta-2/gamma-2 (P20236 whole entry): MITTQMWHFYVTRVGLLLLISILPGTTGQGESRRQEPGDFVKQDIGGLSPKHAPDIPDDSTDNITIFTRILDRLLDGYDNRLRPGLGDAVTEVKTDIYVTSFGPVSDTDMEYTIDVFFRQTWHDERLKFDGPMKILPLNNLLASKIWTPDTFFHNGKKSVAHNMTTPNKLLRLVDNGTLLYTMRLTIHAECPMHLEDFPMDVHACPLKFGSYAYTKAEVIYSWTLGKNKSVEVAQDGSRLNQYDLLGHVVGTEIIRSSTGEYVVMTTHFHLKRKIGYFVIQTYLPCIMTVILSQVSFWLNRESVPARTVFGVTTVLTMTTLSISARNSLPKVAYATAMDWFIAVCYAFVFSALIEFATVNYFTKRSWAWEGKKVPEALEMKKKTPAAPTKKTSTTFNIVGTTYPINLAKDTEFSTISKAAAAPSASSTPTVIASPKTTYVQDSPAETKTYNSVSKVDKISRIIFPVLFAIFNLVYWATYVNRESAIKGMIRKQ
Sequence of GABA A receptor alpha-3/beta-2/gamma-2 (P63138 whole entry): as the sequence (P63138 whole entry) above

Mus musculus [24] = assay: Muscle relaxant effect in mice at dose of 3 mg/kg using rotarod test, value was expressed as no. of falls in 30 seconds; format: functional
Mus musculus [25] = assay: Percent anticonvulsant activity against PTZ induced attack in mice at dose of 3 mg/kg; format: functional
Mus musculus [26] = assay: Synergic sedative effect was tested in mice using the Hole Board test at peroral dose of 3 mg/kg, value was expressed in plane; format: functional; details: route oral
Mus musculus [27] = assay: Synergic sedative effect was tested in mice using the Hole Board test at peroral dose of 3 mg/kg, value was expressed in holes; format: functional; details: route oral
Mus musculus [28] = assay: Synergic sedative effect was tested in mice using the Hole Board test at peroral dose of 30 mg/kg, value was expressed in holes; format: functional; details: route oral
Mus musculus [29] = assay: Synergic sedative effect was tested in mice using the Hole Board test at peroral dose of 30 mg/kg, value was expressed in plane; format: functional; details: route oral
[30] = target: T2, GABA A receptor alpha-2/beta-2/gamma-2; assay: Binding affinity for recombinant rat alpha-2-beta-2-gamma-2 GABA-A receptor subunits expressed in HEK293 cells; format: cell-based

| SMILES | inhibition [1] [%] | No. of falls (Mus musculus [8]) | Activity (Mus musculus [11]) [%] | Ki [14] [nM] | Ratio [15] | Ki [16] [nM] | Ki [17] [nM] | Ki [18] [nM] | also measured |
| --- | --- | --- | --- | --- | --- | --- | --- | --- | --- |
| Oc1c(-c2ccsc2)cnc2c(-c3ccc4ccccc4c3)cnn12 | 30 | – | – | – | – | – | – | – | – |
| CN1C(=O)CN=C(c2ccccc2)c2cc(Cl)ccc21 [DIAZEPAM] | – | – | – | – | – | – | – | – | No. of falls (Mus musculus [2]): 0.5; No. of crosses (Mus musculus [3]): 21.5; Time (Mus musculus [4]): 85 s; No. of crosses (Mus musculus [5]): 22; Time (Mus musculus [6]): 117.5 s; No. of falls (Mus musculus [7]): 0.7 |
| CN1C(=O)CN=C(c2ccccc2)c2cc(Cl)ccc21.Oc1c(-c2ccsc2)cnc2c(-c3ccccn3)cnn12 | – | 0.5 | 90 | – | – | – | – | – | No. of counts (Mus musculus [9]): 68; No. of crosses (Mus musculus [10]): 26.2; Time (Mus musculus [12]): 120.9 s; No. of counts (Mus musculus [13]): 25.8 |
| Oc1c(-c2ccsc2)cnc2c(Cc3ccccc3)cnn12 | 55 | – | – | – | – | – | – | – | – |
| Oc1c(-c2ccsc2)cnc2c(-c3cccnc3)cnn12 | 100 | – | – | 315 | 1.51 | 210 | 30 | 25 | – |
| Oc1c(-c2ccsc2)cnc2c(-c3ccsc3)cnn12 | 100 | 0 | 36.4 | 200 | 1.3 | 223 | 16 | 23 | Time (Mus musculus [19]): 72.3 s; No. of counts (Mus musculus [9]): 12.2; No. of falls (Mus musculus [20]): 0.3; No. of crosses (Mus musculus [21]): 11.8; No. of crosses (Mus musculus [10]): 19.7; Activity (Mus musculus [22]): 9.1%; Time (Mus musculus [12]): 94.9 s; No. of counts (Mus musculus [13]): 52.7; Ki [23]: 196 nM |
| Cc1cccc(-c2cnn3c(O)c(-c4ccsc4)cnc23)c1 | 97 | – | – | – | 2 | – | 26 | – | – |
| Oc1c(-c2ccsc2)cnc2c(-c3cccc4ccccc34)cnn12 | 92 | – | – | > 10000 | 1.02 | 156 | 40 | 47 | – |
| Oc1c(-c2ccsc2)cnc2c(-c3ccc(F)cc3)cnn12 | 99 | – | – | – | 0.9 | – | 31 | – | – |
| Cc1ccc(-c2nc3ccc(C)cn3c2CC(=O)N(C)C)cc1.Oc1c(-c2ccsc2)cnc2c(-c3ccccn3)cnn12 | – | 1.1 | 90 | – | – | – | – | – | No. of counts (Mus musculus [9]; 10 mg/kg): 68 and 28.7; No. of counts (Mus musculus [13]; 10 mg/kg): 25.8 and 9.38 |
| Cc1ccc(-c2nc3ccc(C)cn3c2CC(=O)N(C)C)cc1 [ZOLPIDEM] | – | 0.8 | 90 | – | – | – | – | – | No. of counts (Mus musculus [9]): 54.4; No. of falls (Mus musculus [24]): 0.2; Activity (Mus musculus [25]): 70%; No. of counts (Mus musculus [26]): 84.7; No. of counts (Mus musculus [13]): 26.3; No. of counts (Mus musculus [27]): 45 |
| Oc1c(-c2ccsc2)cnc2c(-c3ccccn3)cnn12 | 98 | 0.3 | 19 | 927 | 1.1 | 740 | 3.9 | 7 | No. of counts (Mus musculus [9]): 96.6; No. of counts (Mus musculus [28]): 50.9; No. of falls (Mus musculus [20]): 0.3; No. of counts (Mus musculus [29]): 110.4; No. of crosses (Mus musculus [10]): 19.6; Activity (Mus musculus [22]): 10%; Time (Mus musculus [12]): 90.6 s; No. of counts (Mus musculus [13]): 55.9 |
| Oc1c(-c2ccsc2)cnc2c(-c3cccc(F)c3)cnn12 | 92 | – | – | – | 1.2 | – | 73 | – | – |
| Oc1c(-c2ccsc2)cnc2c(-c3cccc(Br)c3)cnn12 | 87 | – | – | 291 | 1.72 | 22 | 8.8 | 10 | Ki [23]: 111 nM |
| Oc1c(-c2ccsc2)cnc2c(-c3cccc(C(F)(F)F)c3)cnn12 | 96 | 0.1 | 29.4 | 540 | 2 | 207 | 5.8 | 10 | Time (Mus musculus [19]): 77.3 s; No. of counts (Mus musculus [9]): 139.6; No. of falls (Mus musculus [20]): 0.2; No. of crosses (Mus musculus [21]): 12.7; No. of crosses (Mus musculus [10]): 17.1; Activity (Mus musculus [22]): 0%; Time (Mus musculus [12]): 69.4 s; No. of counts (Mus musculus [13]): 60.7; Ki [23]: 89 nM |
| COc1cccc(-c2cnn3c(O)c(-c4ccsc4)cnc23)c1 | 92 | – | – | – | 1.25 | 737 | 42.2 | 43 | Ki [30]: 827 nM |
| Oc1c(-c2ccsc2)cnc2c(-c3ccccc3)cnn12 | 94 | – | – | – | 1.71 | – | 111 | – | – |
